Entries after “also recorded” stand apart in the source; their conditions may differ. Where two headings read alike, the source gives them in different places.
What was measured:
[1] = pH dependence of the structures; assay type: physicochemical
[2] = Determination of acid dissociation constants K1 and K2 by spectrophotometric titration; assay type: physicochemical; settings: μ = 0.1 (CsCl), aqueous
Method: A 50 ml aqueous solution containing the crown reagent of Example 5 (8.70×10^-5 M), hydrochloric acid (6×10^-4 M), and cesium chloride (0.1 M) was titrated with potassium hydroxide [0.1 M (below pH12), and 1 M (above pH12)], using a Metrohm automatic titrator, Dosimat E535 equipped with Potentiograph E536. The titration was interrupted in every 0.3-1.5 pH increase for the measurement of the absorption spectrum of the solution. A 3-4 ml portion of the solution was taken to a cuvette, the spectrum was recorded on a Hewlett-Packard 8450A spectrometer, and the solution was returned to the titration vessel using a pipet. The magnitude of the spectrum was corrected in order to adjust for dilution upon titration, and corrected results shown in FIG. 1.
[formula] where K1 and K2 denote the acid dissociation constants, and KML a complex formation constant. By assuming no significant complex-formation, an absorbance A at any wavelength and the total concentration of the reagent [HL]t are written as
A=εHLH.spsb.+ [HLH^+ ]+εHL
[HL]+εLL.spsb.- [L^- ] (4)
[HL]t =[HLH^ […] ]+[HL]+[L^- ] (5)
where ε's are molar absorption coefficients. […]
At 342.8 nm and at pH ≥9.7, the absorbance deviating from the isosbestic point reflects the decay of HL and the growth of L-, so that these absorbance data can be used for the evaluation of -logK2 using Eq. (7). […]

[3] = Determination of extraction constant KML^ex, lithium ion; assay type: physicochemical; settings: for -log K^ex LiL (extraction constant): solvent chloroform
Text: (§1) Extraction equilibria are illustrated in FIG. 2 and in the following equation: [formula] where [M^+ ]t denotes a total alkali metal concentration. By assuming [L^-a ]>>[HLa ]+[MLa ], and [M^+ ]t >>[HL]t,
(§2) [HL]t =[HLo ]+[MLo ]+[L^-a ] (12)
(§3) Combining Eq. (8), (11), (12), and (13) gives [formula] where Δε=εMLo -εHLo, and E° denotes the E value in the absence of the metal ion in the system (E°=^ε HLo). […] The absorbance at the isosbestic point 401.4 nm shown in FIG. 1 gives εL.spsb.-.sbsb.a, so that the values of E and Eo, which are necessary for the plot, can be obtained experimentally.
(§4) Determination of the partition equilibrium system was made in a manner similar to that employed in Example 7. The concentrations [HL]t, [M^+ ]t, and [OH^- ] were 5.35×10^-5 M, 4×10^-3 M-2 M (as chloride), and 10^-2 M-10^-1 M (as potassium hydroxide), respectively. Chloroform was used as the organic medium.
(§5) In order to confirm the important assumption [La^- ]>>[HLa]+[MLa ], Eq.(11) (the left equation) was used for the evaluation of E instead of Eq.(15), which was derived from Eq.(11) under the assumption, and the obtained extraction constants compared with those obtained using Eq.(15). When Eq.(11) was applied, the species HLo and MLo in the organic layer were extracted into 0.1M hydrochloric acid as HLH^+, and the concentration of HLH+was determined spectrophotometrically and equated to [HLo ]+[MLo ]in Eq.(11). The extraction constants obtained in this way are […]

[4] = Determination of extraction constant KML^ex, sodium ion; assay type: physicochemical; settings: for -log K^ex NaL (extraction constant): solvent chloroform
Text: as §1, §2, §3, §4, §5

[5] = Effect of sodium ion on lithium determination; assay type: physicochemical; settings: 30-fold excess of sodium ions to lithium ions (Na+:Li+ weight ratio 30:1); versus Li+ alone; chloroform layer (Example 9: 400 nm)
Method: The effect of sodium ion in the system was determined in a procedure similar to that used in Example 7. A series of six round-bottomed flasks containing 5 ml of chloroform, and 5 ml of an aqueous solution containing aza-12-crown-4 reagent (6.7×10^-4 M), lithium chloride (1×10^-4 =0.694 μg ml^-1), and a variable amount of sodium chloride [sodium chloride was added to five of these flasks in 0.001M increments whereby the [NaCl]aq =1×10^-3 M to 5×10^-3 M (23 μg ml^-1 through 115 μg ml^-1); one flask served as a sodium-free blank]. Absorbance of the organic layer was measured on a spectrophotomer. The results are illustrated in FIG. 4.

[6] = Effect of organic solvents and bases on response to lithium and sodium ion; assay type: physicochemical
Method: Three solvents--chloroform, 1,2-dichloroethane and methylene chloride--werecompared using potassium hydroxide and sodium hydroxide as bases. […] At 0.1M hydroxide, however, large differences were observed both between the cations and between the organic solvents. […] The best stability of the absorbance after the separation of organic layer from the equilibrium system was also observed for this system.
Various other organic solvents were tested as organic media with a 0.01 M potassium hydroxide.

[7] = μ = 0.1 (CH3)4NCl; reported by Nakamura et al; cited from earlier work
[8] = cited from earlier work
[9] = solvent 1,2-dichloroethane; pH not specified; reported by Nakamura et al; cited from earlier work
[10] = obtained using Eq. (11), organic species back-extracted into 0.1M hydrochloric acid, chloroform

Compound: O=[N+]([O-])c1ccc(O)c(CN2CCOCCOCCOCC2)c1 [ii, 1-(2-oxy-5-nitrobenzyl)1-aza-4,7,10-trioxacyclododecane]
- pH at which the structure predominates [1]: greater than 11

Compound: O=[N+]([O-])c1ccc(O)c(CN2CCOCCOCCOCC2)c1 [aza-12-crown-4, 1-(2-oxy-5-nitrobenzyl)-1-hydro-1-aza-4,7,10-trioxacyclododecane]
- -log K1 (acid dissociation constant) [2]: 5.77
- -log K2 (acid dissociation constant; pK2) [2]: 10.31
- -log K^ex LiL (extraction constant) ([3]; 0.05M KOH): 10.23
- -log K^ex LiL (extraction constant) ([3]; 0.1M KOH): 10.18
- dependence of -log KLiL^ex on hydroxide concentration ([3]; 10^-2 M-10^-1 M KOH, chloroform): not significantly dependent on the hydroxide concentration employed
- ratio of KLiL^ex to KNaL^ex (selectivity) ([3]; compared with aza-15-crown-5): much greater than the aza-15-crown5
- KLiL^ex smaller than that of prior art aza-15-crown-5, factor ([3]; compared with prior art aza-15-crown-5): smaller by a factor of ten
- -log KLiL^ex (extraction constant) [3, 10]: 10.25
- -log K^ex NaL (extraction constant) ([4]; 0.05M KOH): 12.49
- -log K^ex NaL (extraction constant) ([4]; 0.1M KOH): 12.50
- -log KNaL^ex (extraction constant) [4, 10]: 12.47
- increase in absorbance in presence of sodium ion [5]: 8%
- sensitivity and interference differences between bases and solvents ([6]; 0.01 M hydroxide, chloroform, 1,2-dichloroethane, methylene chloride, KOH and NaOH): no significant sensitivity and interference differences were observed
- sensitivity and sodium interference, bases and solvents ([6]; 0.1M hydroxide, chloroform, 1,2-dichloroethane, methylene chloride, KOH and NaOH): Potassium hydroxide gave higher sensitivity in both chloroform and methylene chloride than sodium hydroxide, but not in 1,2-dichloroethane; also recorded: Methylene chloride exhibited the highest sensitivity when used with potassium hydroxide, but was subject to increased interference by sodium ions; also recorded: The combination of methylene chloride and sodium hydroxide allowed most of the reagent to pass into the organic layer; also recorded: optimum combination of high sensitivity, low interference, and low blank absorption was achieved by a system employing 0.1M potassium hydroxide and chloroform
- response / extraction by organic solvent ([6]; organic solvents tested with 0.01 M potassium hydroxide): no response of the reagent to lithium and sodium ion was observed; also recorded: Methyisobutyl-ketone showed only slight extraction of the metal complex; also recorded: No extraction occurred into benzene, carbon tetrachloride, chlorobenzene, and trichlorethylene
- response with triethylamine as base ([6]; triethylamine 1M in CHCl3, compared with KOH): the response to lithium ions was smaller and the response to sodium ions was larger
- response with triethylamine plus sodium hydroxide ([6]; triethylamine 1M in CHCl3 and sodium hydroxide 0.1M): intermediate response to lithium ions, and the response was not stable
- pH at which the structure predominates ([1]; listed as iii): approximately 8

Compound: O=[N+]([O-])c1ccc(O)c(CN2CCOCCOCCOCCOCC2)c1 [aza-15-crown-5, N-(2-hydroxy-5-nitrobenzyl)-aza-15-crown-5]
- -log K1 (acid dissociation constant) [7]: 5.79
- -log K2 (acid dissociation constant) [7]: 9.69
- -log K^ex LiL (extraction constant) ([8]; solvent 1,2-dichloroethane, pH not specified, reported by Nakamura et al): 9.15
- -log K^ex NaL (extraction constant) [9]: 9.76

Compound: C1COCCN2CCOCCN(CCO1)CCOCC2 [cryptand [2,1,1]]
- sensitivity to lithium ions ([8]; cryptand itself, without ion pairing agent): not sensitive to lithium ions
- extraction of lithium ions compared with reagent of Nakamura et al ([8]; with ion pairing agent resazurin): more selectively and more efficiently

Compound: O=[N+]([O-])c1ccc(O)c(CN2CCOCCOCCOCC2)c1 [i, 1-(2-hydroxy-5-nitrobenzyl)-1-hydro-1-aza-4,7,10-trioxacyclododecane]
- pH at which the structure predominates [1]: less than 5
